Assays:
[1] = system: rice blast fungus (Magnaporthe grisea); assay type: in vivo; settings: rice (Nipponbare), 500 ppm foliar spray, contact with infected seedling, 6 days
[2] = system: wheat rust fungus (Puccinia recondita); test: Test Example 2: wheat rust, foliar spray preventive test; assay type: in vivo; settings: wheat (Shirogane), 500 ppm foliar spray, inoculated 5 days after spraying, assessed after 1 + 8 days

Row | SMILES | lesion areas on treated plant relative to non-treated plant [1] [%] | area of the lesion on treated plant relative to untreated plant [2] [%]
1 | COC(=O)Nc1cccc(C)c1COc1ccc(-c2nccc(C)n2)cc1C [Compound 2] | ≤ 30 | –
2 | COC(=O)Nc1ccccc1COc1ccc(-c2ncccn2)cc1 [methyl N-(2-{[4-(pyrimidine-2-yl)phenoxy)methyl}phenyl)carbamate] | – | ≥ 70

Reference: US10194662B2, “Carbamate compound and use thereof” (SUMITOMO CHEMICAL COMPANY, LIMITED, priority 2015, dated 2019)
